Counter-ions that a name gives are not always drawn.
Target: T1, CCK2 receptor (Homo sapiens, UniProt P32239)
T1 construct: analyzed for ZFP expression as well as CCK2R induction upon addition of doxycycline to the culture medium; endogenous in cells
T1 sequence (P32239 1-447): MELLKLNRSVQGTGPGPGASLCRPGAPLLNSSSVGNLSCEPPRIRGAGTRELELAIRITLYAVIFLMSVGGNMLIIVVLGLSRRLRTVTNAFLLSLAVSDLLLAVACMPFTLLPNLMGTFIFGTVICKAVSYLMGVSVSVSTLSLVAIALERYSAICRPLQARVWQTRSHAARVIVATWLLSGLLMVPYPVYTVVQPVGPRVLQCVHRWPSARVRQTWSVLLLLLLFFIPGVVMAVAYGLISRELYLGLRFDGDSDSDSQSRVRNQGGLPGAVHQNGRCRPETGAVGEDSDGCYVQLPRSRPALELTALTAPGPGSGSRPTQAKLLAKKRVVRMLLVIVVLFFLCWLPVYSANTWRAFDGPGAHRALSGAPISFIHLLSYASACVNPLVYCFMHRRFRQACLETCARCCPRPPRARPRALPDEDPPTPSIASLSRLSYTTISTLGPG
Test: CCK2 binding assay ([125I]-BH-CCK-8S displacement, HEKZFP membranes)
Conditions: membranes of doxycycline-induced HEKZFP cells; 20 pM [125I]-BH-CCK-8S; 60 min at 21±3° C.
Protocol: 2. CCK2 Assay Development and Data Generation
Zinc Finger Proteins (ZFP) specific for the CCK2R gene were identified by Sangamo Biosciences. The ZFP domain was fused with the herpes simplex virus VP16 activation domain, and the fusion protein was subsequently cloned into the pcDNA3 mammalian expression vector (Invitrogen, San Diego, Calif.). […] After 2 weeks of selection in culture medium containing […] Zeocin (Invitrogen), sixty drug-resistant stable clones were isolated and analyzed for ZFP expression as well as CCK2R induction upon addition of doxycycline to the culture medium.
HEKZFP cells were grown in DMEM supplemented with L-glutamine (2 mM), penicillin (50 units/mL) and streptomycin (50 μg/mL) and 10% FBS (v/v).
Membranes were prepared from the HEKZFP cells after induction. […] The thawed pellets were homogenized using a Polytron PT-10 (7×1 s). The homogenates were centrifuged for 5 min at 1500 rpm (600×g), and the resulting pellets were discarded. The supernatants were re-centrifuged in order to collect the receptor-membrane pellets (25 min 15,000 rpm; 39,800×g), which were re-suspended in buffer A.
The assay preparation was incubated for 1 h at 21±3° C., and then the assay was terminated by rapid filtration of the preparation under reduced pressure. The loaded filters were washed three times using undiluted PBS (100 μL), and then 100 μL of scintillation fluid was added to the filter plate. Bound radioactivity was determined using a Topcount (Packard BioScience, Meriden, Conn.) with a count time of 1 min. […] To validate the radioligand concentration and incubation time for the assay, saturation and kinetic binding studies were also conducted (see M. F. Morton, The Pharmacological Characterization of Cholecystokinin Receptors in the Human Gastrointestinal Tract. PhD Thesis, University of London, 2000). […] The assay was then terminated according to the procedure outlined above.
(§1) 3. Data Analysis for CCK1 and CCK2 Binding Assays
The pKi values were determined using the equation of Y.-C.
(§2) [formula] To circumvent problems associated with computer-assisted data analysis of compounds with low affinity, the data obtained in the current study were weighted according to a method described by Morton. In brief, 100% and 0% specific binding were defined independently using total binding and binding obtained in the presence of a high concentration of the reference antagonist, 2-NAP.

SMILES	CCK2 pKi
O=C(N[C@H](C(=O)O)C(c1ccc(Cl)cc1)c1ccc(Cl)cc1)c1ccc(Cl)cc1NS(=O)(=O)c1cccc2nsnc12 [Example 106, (S)-2-[2-(Benzo[1,2,5]thiadiazole-4-sulfonylamino)-4-chloro-benzoylamino]-3,3-bis-(4-chloro-phenyl)-propionic acid]	5.9
O=C(N[C@@H](Cc1ccc(F)c(Br)c1)C(=O)O)c1cc(Cl)c(Cl)cc1NS(=O)(=O)c1cccc2nsnc12 [Example 157, (S)-2-[2-(Benzo[1,2,5]thiadiazole-4-sulfonylamino)-4,5-dichloro-benzoylamino]-3-(3-bromo-4-fluoro-phenyl)-propionic acid]	8.0

Same assay, conditions: membranes of doxycycline-induced HEKZFP cells; 20 pM [125I]-BH-CCK-8S; 60 min at 21±3° C.; read-out: CCK2 pKi (converted)

SMILES	Ki [µM]
O=C(N[C@@H](Cc1ccccc1)C(=O)O)c1ccc(Br)cc1NS(=O)(=O)c1cccc2nsnc12 [Example 25, 2-[2-(Benzo[1,2,5]thiadiazole-4-sulfonylamino)-4-bromo-benzoylamino]-3-phenyl-propionic acid]	0.0398
O=C(N[C@@H](Cc1ccccc1)C(=O)O)c1ccc(I)cc1NS(=O)(=O)c1cccc2nccnc12 [Example 27, 2-[4-Iodo-2-(quinoxaline-5-sulfonylamino)-benzoylamino]-3-phenyl-propionic acid]	0.0316
O=C(N[C@@H](Cc1ccccc1)C(=O)O)c1ccc(I)cc1NS(=O)(=O)c1cccc2scnc12 [Example 28, 2-[2-(Benzothiazole-4-sulfonylamino)-4-iodo-benzoylamino]-3-phenyl-propionic acid]	0.0794
CN(CCc1ccccn1)C(=O)c1ccc(Cl)cc1NS(=O)(=O)c1cccc2nsnc12 [Example 51, 2-(Benzo[1,2,5]thiadiazole-4-sulfonylamino)-4-chloro-N-methyl-N-(2-pyridin-2-yl-ethyl)-benzamide hydrochloride]	0.794
N#Cc1cccc(C[C@H](NC(=O)c2ccc(Cl)cc2NS(=O)(=O)c2cccc3nccnc23)C(=O)O)c1 [Example 63, (S)-2-[4-Chloro-2-(quinoxaline-5-sulfonylamino)-benzoylamino]-3-(3-cyano-phenyl)-propionic acid]	0.0316
O=C(N[C@@H](Cc1ccsc1)C(=O)O)c1ccc(Cl)cc1NS(=O)(=O)c1cccc2nsnc12 [Example 77, (S)-2-[2-(Benzo[1,2,5]thiadiazole-4-sulfonylamino)-4-chloro-benzoylamino]-3-thiophen-3-yl-propionic acid]	0.0316
O=C(N[C@@H](Cc1cccc([N+](=O)[O-])c1)C(=O)O)c1ccc(Cl)cc1NS(=O)(=O)c1cccc2nccnc12 [Example 84, (S)-2-[4-Chloro-2-(quinoxaline-5-sulfonylamino)-benzoylamino]-3-(3-nitro-phenyl)-propionic acid]	0.0316
O=C(N[C@@H](Cc1ccc(F)c(F)c1)C(=O)O)c1ccc(Cl)cc1NS(=O)(=O)c1cccc2nccnc12 [Example 85, (S)-2-[4-Chloro-2-(quinoxaline-5-sulfonylamino)-benzoylamino]-3-(3,4-difluoro-phenyl)-propionic acid]	0.0631
N#Cc1ccc(C[C@H](NC(=O)c2ccc(Cl)cc2NS(=O)(=O)c2cccc3nccnc23)C(=O)O)cc1 [Example 86, (S)-2-[4-Chloro-2-(quinoxaline-5-sulfonylamino)-benzoylamino]-3-(4-cyano-phenyl)-propionic acid]	0.0316
O=C(N[C@@H](Cc1ccsc1)C(=O)O)c1ccc(Cl)cc1NS(=O)(=O)c1cccc2nccnc12 [Example 87, (S)-2-[4-Chloro-2-(quinoxaline-5-sulfonylamino)-benzoylamino]-3-thiophen-3-yl-propionic acid]	0.158

Target: T2, CCK-1 receptor (Homo sapiens, UniProt P32238)
T2 construct: expressed in transfected cells; host or cells: CHO-K1
T2 sequence (P32238 1-428): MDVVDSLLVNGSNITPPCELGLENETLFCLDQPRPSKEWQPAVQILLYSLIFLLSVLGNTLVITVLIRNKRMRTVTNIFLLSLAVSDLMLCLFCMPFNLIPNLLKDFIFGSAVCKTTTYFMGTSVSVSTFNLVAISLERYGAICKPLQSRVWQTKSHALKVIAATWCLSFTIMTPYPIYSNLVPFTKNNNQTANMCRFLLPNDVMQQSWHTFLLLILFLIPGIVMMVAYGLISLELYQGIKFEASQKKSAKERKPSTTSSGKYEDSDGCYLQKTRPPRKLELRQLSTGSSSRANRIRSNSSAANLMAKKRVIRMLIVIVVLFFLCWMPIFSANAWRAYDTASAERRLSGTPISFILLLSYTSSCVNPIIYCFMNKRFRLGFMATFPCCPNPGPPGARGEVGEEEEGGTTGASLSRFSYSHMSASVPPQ
Test: CCK1 binding assay ([125I]-BH-CCK-8S displacement, CHO-K1 membranes)
Conditions: membranes of CHO-K1 cells stably transfected with the CCK-1 receptor; 20 pM [125I]-BH-CCK-8S; 0.3 μM PD-134,308 present; 60 min at 21±3° C.
Protocol: 1. CCK1 Assay Development and Data Generation
CHO-K1 cells that had undergone stable transfection with the CCK-1 receptor were grown in DMEM supplemented with L-glutamine (2 mM), penicillin (50 units/mL) and streptomycin (50 μg/mL). Cells were cultured under continuous G418 selection (2 mM) and were harvested using a rubber cell scraper. CHO-K1 cells were sub-cultured a maximum of ten times before being reseeded from the original stocks.
Membranes were prepared from the stably transfected CHO-K1 cells. Frozen cell pellets (−40° C.) were thawed in 14 mL of buffer A (10 mM HEPES, 130 mM NaCl, 4.7 mM KCl, 5 mM MgCl, 1 mM EGTA and 15.4 mg/100 mL bacitracin at pH 7.2), adapted from Harper et al. (Br. J. Pharmacol. 1996, 118:1717-1726). The thawed pellets were homogenized using a Polytron PT-10 (7×1 s). The homogenates were centrifuged for 5 min at 1500 rpm (600×g), and the resulting pellets were discarded. The supernatants were re-centrifuged in order to collect the receptor-membrane pellets (25 min 15,000 rpm; 39,800×g), which were re-suspended in buffer A.
All assays were conducted in 96-well plates (GF/B millipore filter plates) using buffer A, with 0.3 μM PD-134,308, for the dilutions. The CCK-2 receptor ligand was included to eliminate the contribution of this receptor subtype to the binding. For the optimal cell number determination experiments 20 pM [^125I]-BH-CCK-8S (50 μL […] solution) was incubated with a range of cell concentrations ([…] to 12.5×10^5 cells/well) in a total volume of 150 μL. Total binding of [^125I]-BH-CCK-8S was determined in the presence of 15 μL of buffer A. Non-specific binding of [^125I]-BH-CCK-8S was determined in the presence of 15 μL of 100 μM 2-naphthalenesulphonyl L-aspartyl-(2-phenethyl)amide (2-NAP: see R. A. Hull et al. Br. J. Pharmacol. 1993, 108:734-740), a CCK-1 receptor selective antagonist that is structurally unrelated to the radioligand [^125I]-BH-CCK-8S. The assay preparation was incubated for 1 h at 21±3° C., and then the assay was terminated upon rapid filtration of the preparation under reduced pressure. The loaded filters were washed three times using undiluted PBS ([…]), and then the residues were transferred to 5 mL scintillation tubes. Bound radioactivity was determined using a gamma counter (count time=1 min). […] To validate the radioligand concentration and incubation time for the assay, saturation and kinetic binding studies were also conducted (see M. F. Morton, The Pharmacological Characterization of Cholecystokinin Receptors in the Human Gastrointestinal Tract. PhD Thesis, University of London, 2000). […] The assay was then terminated according to the procedure outlined above.
as §1
The pKi values were determined using the equation of Y.-C. Cheng and W. H. Prusoff (Biochem. Pharmacol., 1973, 22(23):3099-3108):
as §2

SMILES	CCK1 pKi
O=C(NCC(c1ccc(Cl)cc1)c1ccc(Cl)cc1)c1ccc(Cl)cc1NS(=O)(=O)c1cccc2nsnc12 [Example 6, 2-(Benzo[1,2,5]thiadiazole-4-sulfonylamino)-N-[2,2-bis-(4-chloro-phenyl)-ethyl]-4-chloro-benzamide]	7.5
O=C(N[C@@H](Cc1ccc(Cl)c(Cl)c1)C(=O)O)c1ccc(Cl)cc1NS(=O)(=O)c1cccc2nsnc12 [Example 117, (S)-2-[2-(Benzo[1,2,5]thiadiazole-4-sulfonylamino)-4-chloro-benzoylamino]-3-(3,4-dichloro-phenyl)-propionic acid]	6.6

Same assay, conditions: membranes of CHO-K1 cells stably transfected with the CCK-1 receptor; 20 pM [125I]-BH-CCK-8S; 0.3 μM PD-134,308 present; 60 min at 21±3° C.; read-out: CCK1 pKi (converted)

SMILES	Ki [µM]
C[C@@H](NC(=O)c1ccc(Cl)cc1NS(=O)(=O)c1cccc2nsnc12)C(O)(c1ccccc1)c1ccccc1 [Example 73, (R)-2-(Benzo[1,2,5]thiadiazole-4-sulfonylamino)-4-chloro-N-(2-hydroxy-1-methyl-2,2-diphenyl-ethyl)-benzamide]	0.158
